Reference: patent publication US6376510B1, “Neuromuscular relaxants” (Newlaxant LLC, priority 1997, dated 2002)
Like-named read-outs stand apart in the source and are kept apart here.

Assays:
rabbits = experiment: In vivo neuromuscular block and cardiovascular side effects, rabbit (Example 8, Table 7); conditions: for ED50: intravenous dose causing 50% neuromuscular block; for Onset: time to 80-85% neuromuscular block
anesthetized monkeys = experiment: In vivo neuromuscular block and cardiovascular side effects, monkey (Example 8, Table 6); conditions: for ED50: intravenous dose causing 50% neuromuscular block; for Onset: time to 80-85% neuromuscular block
Procedure, shortened: (§1)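 Electromyographic and mechanomyographic responses quantified. Monkeys sedated with intramuscular ketamine, then general anesthesia with intravenous pentobarbital and propofol; juvenile pigs induced with inhaled halothane.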

[1] = tested on: anesthetized rats (evoked responses of anterior tibial muscle); experiment: In vivo neuromuscular block and cardiovascular side effects, anesthetized rat (Example 8, Table 3); conditions: for Onset: time to 80-85% neuromuscular block
Procedure, shortened: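 Pentobarbital-anesthetized (i.p.), ventilated adult male rats given saline-dissolved agents i.v.; anterior tibial EMG responses to supramaximal single or train-of-four sciatic/peroneal stimuli, plus 0.1 or 1 Hz stimulation. Doses for 50%, 80%, 90% block derived. Onset: minutes to 80-85% block; RI: 25-75% spontaneous recovery; vagal block, heart rate and blood pressure changes (%) at 80-85% blocking dose.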

[2] = tested on: anesthetized rats (evoked responses of anterior tibial muscle); experiment: Muscle relaxant (neuromuscular blocking) properties, anesthetized rat (Example 9, Table 9); conditions: for Onset: time to 80-85% neuromuscular block
Source text: (§2) The data on muscle relaxant action were obtained on anesthetized rats, and when indicated, also on juvenile pigs
(§3) Adult, male albino rats were anesthetized with pentobarbital injected intraperitoneally. Juvenile, Duroc pigs 9-12 kg body weight were anesthetized with Chloralose Nembutal sodium mixture intraperitoneally after deep sedation with inhaled halothane. The trachea was cannulated for artificial respiration via a small animal respirator. The carotid artery was cannulated for recording blood pressure via a transducer and heart rate by a cardiotachograph on a polygraph. One external jugular vein was cannulated for i.v. drug administration. Neuromuscular function was monitored by electromyography, recording evoked responses from the anterior tibial muscle as a result of supramaximal nerve stimuli consisting of single or “train-of-four” rectangular pulses of 0.1-0.2 msec duration every 10-12 seconds, delivered to the sciatic or common peroneal nerve by a laboratory nerve stimulator. Another mode of stimulation included repeated single stimuli delivered at 0.1 Hz or 1 Hz. […] The agents were dissolved in physiologic saline and injected intravenously at appropriate time intervals. The intensity, onset, and duration of neuromuscular block and its type were determined with each agent. Through administering several doses, the doses corresponding to 50%, 80% and 90% neuromuscular block were determined. All agents were compared with selected standard neuromuscular blocking compounds, e.g., rocuronium.
(§4) Onset=time in minutes to 80-85% neuromuscular block.
(§5) RI=recovery index, minutes, spontaneous recovery, 25-75% neuromuscular response.
(§6) VB=vagal block, %, at 80-85% neuromuscular blocking dose.
(§7) HR=change in heart rate, %, at 80-85% neuromuscular blocking dose.
(§8) BP=change in arterial blood pressure, %, at 80-85% neuromuscular blocking dose.

[3] = tested on: anesthetized juvenile Duroc pigs; experiment: animal or person; conditions: for % VB at ED80 nmb (vagal block) / BP (change in arterial blood pressure) / HR (change in heart rate): in vivo; for RI (recovery index): spontaneous recovery, 25-75% neuromuscular response; for Onset: time to 80-85% neuromuscular block
Source text: as §2, §3, §4, §5, §6, §7, §8

[4] = tested on: anesthetized cats (evoked responses of anterior tibial muscle); experiment: animal or person; conditions: for Onset: time to 80-85% neuromuscular block
Procedure, shortened: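 Adult cats anesthetized i.p. with 70 mg/kg alpha chloralose plus 0.5 g/kg ethylurethane; agents in saline given i.v. Anterior tibial muscle responses to supramaximal single or train-of-four stimuli of sciatic or peroneal nerve recorded electromyographically and mechanomyographically, alongside blood pressure and heart rate.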

[5] = tested on: anesthetized juvenile pigs; experiment: animal or person; format: in vivo; conditions: pig; for ED50: intravenous dose causing 50% neuromuscular block; for Onset: time to 80-85% neuromuscular block
Procedure, shortened: as §1

dogs = experiment: animal or person; format: in vivo; conditions: dog; for ED50: intravenous dose causing 50% neuromuscular block; for Onset: time to 80-85% neuromuscular block
[6] = spontaneous recovery, 25-75% neuromuscular response
[7] = rat, at 80-85% neuromuscular blocking dose
[8] = rat, spontaneous recovery, 25-75% neuromuscular response

## C=CC[N+]1([C@H]2C[C@H]3[C@@H]4CC[C@H]5C[C@H](O)[C@@H](N6CCOCC6)C[C@]5(C)[C@H]4CC[C@]3(C)[C@H]2OC(C)=O)CCCC1 [Rocuronium, reference compound]
rabbits; Oryctolagus cuniculus, read-out: ED50
  ED50: 0.03 mg/kg
rabbits; in vivo
  RI (recovery index): 2.4 min
  ΔBP (change in arterial blood pressure): 0%
  ΔH (change in heart rate): 0%
rabbits
  Onset: 1.1 min
Anesthetized monkeys; Primates, read-out: ED50
  ED50: 0.013 mg/kg
Anesthetized monkeys; in vivo
  RI (recovery index): 5.6 min
  ΔBP (change in arterial blood pressure): 0%
  ΔH (change in heart rate): 0%
Anesthetized monkeys
  Onset: 3.5 min
[1]; Rattus norvegicus, iv
  ED50: 0.45 mg/kg
[1]; male, rat, in vivo
  VB (vagal block): 60%
  ΔBP (change in arterial blood pressure): 0%
  ΔH (change in heart rate): 0%
[1]; rat, in vivo
  RI (recovery index): 1.3 min
[1]; rat
  Onset: 0.95 min
[2]; Rattus norvegicus, iv
  ED50: 0.45 mg/kg
[2]; male, rat, in vivo
  % VB at ED80 nmb (vagal block): 60%
  BP (change in arterial blood pressure): 0%
  HR (change in heart rate): 0%
[2]; rat, in vivo
  RI (recovery index): 1.3 min
[2]; rat
  Onset: 0.95 min
[3]; Duroc, pig
  % VB at ED80 nmb (vagal block): 47%
  BP (change in arterial blood pressure): 0%
  HR (change in heart rate): 0%
[3]; Sus scrofa, iv
  ED50: 0.35 mg/kg
[3]; pig
  RI (recovery index): 3.2 min
  Onset: 1.5 min
[4]; Felis catus, iv
  ED50: 0.185 mg/kg
[4]; cat, in vivo
  ΔBP (change in arterial blood pressure): 0%
  ΔH (change in heart rate): 0%
[4]; cat
  Onset: 2.1 min
[4]; in vivo
  RI (recovery index): 3.8 min
[5]; Sus scrofa, read-out: ED50
  ED50: 0.35 mg/kg
[5]; in vivo
  RI (recovery index): 3.2 min
  VB (vagal block): 47%
  ΔBP (change in arterial blood pressure): 0%
  ΔH (change in heart rate): 0%
[5]
  Onset: 1.5 min
dogs; Canis lupus familiaris, read-out: ED50
  ED50: 0.076 mg/kg
dogs; in vivo
  RI (recovery index): 3.3 min
  ΔBP (change in arterial blood pressure): 0%
  ΔH (change in heart rate): 0%
dogs
  Onset: 1.9 min

## COc1cc(C[N+]2(C)C3CCC2CC(OC(=O)C2C4C=CC(C4)C2C(=O)OC2CC4CCC(C2)[N+]4(C)Cc2ccc(OC(C)=O)c(OC)c2)C3)ccc1OC(C)=O.[Br-].[Br-] (stereo not drawn) [bis[N-(4-acetoxy-3-methoxybenzyl)tropanium-3α-yl]trans-3,6-endomethylene-1,2,3,6-tetrahydrophthalate dibromide]
rabbits; in vivo
  ΔBP (change in arterial blood pressure): 0%
  ΔH (change in heart rate): 0%
rabbits
  ED50: 0.155 mg/kg
  Onset: 0.65 min
rabbits; [6]
  RI (recovery index): 0.65 min
Anesthetized monkeys; in vivo
  ΔBP (change in arterial blood pressure): 0%
  ΔH (change in heart rate): 0%
Anesthetized monkeys
  ED50: 0.055 mg/kg
  Onset: 0.85 min
Anesthetized monkeys; [6]
  RI (recovery index): 0.5 min
[1]; [7]
  VB (vagal block): 25%
  ΔBP (change in arterial blood pressure): 0%
  ΔH (change in heart rate): 0%
[1]; rat, intravenous dose causing 50% neuromuscular block
  ED50: 0.15 mg/kg
[1]; [8]
  RI (recovery index): 0.5 min
[1]; rat
  Onset: 0.55 min
[4]; cat, intravenous dose causing 50% neuromuscular block
  ED50: 0.193 mg/kg
[4]; cat, spontaneous recovery, 25-75% neuromuscular response
  RI (recovery index): 0.4 min
[4]; cat
  Onset: 0.7 min
[4]; in vivo
  VB (vagal block): 20%
  ΔBP (change in arterial blood pressure): 0%
  ΔH (change in heart rate): 5%
[5]; in vivo
  VB (vagal block): 43%
  ΔBP (change in arterial blood pressure): 0%
  ΔH (change in heart rate): 0%
[5]
  ED50: 0.19 mg/kg
  Onset: 0.6 min
[5]; [6]
  RI (recovery index): 1 min
dogs; in vivo
  ΔBP (change in arterial blood pressure): −25%
  ΔH (change in heart rate): 40%
dogs
  ED50: 0.35 mg/kg
  Onset: 0.63 min
dogs; [6]
  RI (recovery index): 0.5 min

## Bis[N-(3,4-diacetoxybenzyl)-6-azabicyclo[3.2.1]octanium-3-yl]cyclohexane-1,3-dicarboxylate dibromide
[2]; rat, in vivo
  % VB at ED80 nmb (vagal block): 5 (2) %
  BP (change in arterial blood pressure): 0%
  HR (change in heart rate): 0%
[2]; rat, intravenous dose causing 50% neuromuscular block, spread in brackets
  ED50: 384 (42) μg/kg
[2]; [8]
  RI (recovery index): 0.5 (0.04) min
[2]; rat
  Onset: 0.7 (0.05) min
[3]; pig
  % VB at ED80 nmb (vagal block): 70%
  BP (change in arterial blood pressure): 0%
  HR (change in heart rate): 0%
  RI (recovery index): 0.85 min
  Onset: 0.5 min
[3]; pig, intravenous dose causing 50% neuromuscular block
  ED50: 0.78 mg/kg
